The subject of series [1] is AC3-TGL cells. In words: human primary SCLC xenograft model, Example 15. It is filed as in vivo. The source says: This Example studied whether the ME analog affects tumor metastasis in a human small cell lung cancer (SCLC) primary xenograft model. These cells in primary and subsequent in vivo passages in NOD-SCID mice formed liver metastases. The tumor cells were stably transduced with a triple-fusion protein reporter construct (AC3-TGL), and were transplanted by subcutaneous injection with matrigel into NOD/SCID IL2R gamma null (NSG) mice. Started 1 day prior the inoculation of tumor cells, ME treatment was initiated by intraperitoneal injection at 40 mg/kg (ME40) or 200 mg/kg (ME200) three times a week in groups of 5 mice. Control mice were treated with DMSO vehicle. Tumor burden and metastatic spread were monitored every 5 days by serial non-invasive bioluminescent imaging. […] At the endpoint, the potential metastatic sites (liver, lung, spleen, heart and kidney, gastrointestinal tract) were surgically resected and the luciferase activity quantified by ex-vivo bioluminescence imaging (FIG. 5b).
For the results depicted in FIGS. 5a-c, AC3-TGL cells were transplanted by subcutaneous ventral injection into NSG mice. Xenografted mice were treated with indicated dosages of ME every 3 days started from day −1 after tumor inoculation: 40 mg/kg (ME40, n=5), 200 mg/kg (ME200, n=5)) and DMSO vehicle (Control, n=5). At day 45, the mice were sacrificed. Three mice in the ME200 group died before the end of treatment, at day 23, 30 and 34. (A) Tumor growth. Every 5 days, the tumor burden was monitored by in vivo Bioluminescence Imaging (BI) and data is expressed as photon flux (flux in photon/sec)+/−SEM in log scale. (B, C) Tumor metastasis at endpoint. At day 45, mice were analyzed for metastasis by ex vivo BI quantifying luciferase activity in the excised lungs (Lu), liver (Li), heart (H), kidneys (K) and the spleen (S). Measurements for each mouse are presented on the panel B (circles), with the average per group (short line) and expressed as photon flux (flux in photon/sec) in log scale. P-values were obtained using two-tailed Mann-Whitney U-test. Pictures of bioluminescence signal measured on the organs from 1 mouse of each group are presented on the panel C. Each picture is presented with the same settings (4 min exposure; photon signal; color scale from 5.E6 (min) to 1.E8 (max)).
Xenograft Model for Example 15: A human primary SCLC xenograft model was developed in 10-14 weeks old male non-obese diabetic severe combined immunodeficient (NOD/SCID) Interleukin-2 gamma Chain Receptor Null Mice (NSG). Primary tumor samples were obtained after patient informed consent. AC3-TGL primary cells growing as clumps were processed into a single-cell suspension by Trypsin/Collagenase IV (Invitrogen) sequential treatment and filtrated as described above. Xenografts were performed by subcutaneous ventral injection of 10^3 AC3-TGL cells in serum-free medium mixed with Matrigel (Becton Dickinson). One day prior to the tumor cell injection, mice were pretreated with Migrastatin Ether (ME) compounds at a dose of either 40 mg/kg or 200 mg/kg per mouse or with DMSO vehicle control (n≧5 mice per group). […] During this time, the tumor burden and metastatic spread were monitored by bioluminescence imaging (BLI) every 5 days. At day 45 (endpoint), the mice were killed and the metastatic spread of tumor cells to the lungs, liver, heart, kidneys, spleen and GI tract was assessed by ex-vivo BLI on the removed organs.
Background: In xenograft studies the graft and the host belong to different species.

Series [2] is described as follows: mouse pharmacokinetics, plasma HPLC-MS/MS. It is filed as in vivo, mice (B6D2F1). The note with it: for AUC(0-t): 20 mg/kg in 2% GDM-12, read-out: AUC0-24 hr; for half-life: 20 mg/kg in 2% GDM-12, read-out: Half-life (t1/2) (converted). On the procedure:
Groups of mix gender mice (B6D2F1) were used. Pharmacokinetics (PK) were performed on heparinized mouse plasma samples obtained typically at 0 hr, 0.17 hr, 0.5 hr, 0.75 hr, 1 hr, 2 hr, 4 hr, 8 hr, 16 hr and 24 hr after the bolus intravenous or intraperitoneal injections for CME. Samples were analyzed using a HPLC-MS/MS method. To determine the level of CME, the drug was first isolated from plasma with a sample pre-treatment. Acetonitrile were used to remove proteins in samples. An isocratic HPLC-MS/MS method was then used to separate the drugs from any potential interference. Compound levels were measured by MS detection with a multiple reaction monitoring (MRM) mode. PK data was analyzed using the WinNonlin program (ver. 5.3, Pharsight) compartmental model of analysis.
The hashed line is (A: ip) and the solid line is (B:iv) The drug was administered intravenously or intraperitoneally and the dosing strength was 20 mg/kg.

The nature of series [3]: water solubility. It is filed as physicochemical. Conditions: water with 5% methanol, aqueous with cosolvent or surfactant or cyclodextrin; in the presence of 5% methanol.
[4] abbreviates: both sexes, B6D2F1, plasma, ip, 20 mg/kg in 2% GDM-12.
Where [5] appears, read: both sexes, B6D2F1, plasma, iv, 20 mg/kg in 2% GDM-12.

Like-named read-outs stand apart in the source and are kept apart here.

As for `CO[C@H]1/C=C/CCCCCOC/C(C)=C\[C@@H](C)[C@@H]1O` [ME, migrastatin ether], in series [1] (40 mg/kg i.p. every 3 days, day 45, vs control), the “decrease of overall metastasis” value stood at 93%. Besides, the “mice died before the endpoint” value in series [1] (200 mg/kg group of 5) is on record as 3 mice. Besides, the metastasis inhibition in series [1] (200 mg/kg i.p. every 3 days, day 45, 2 surviving mice) is reported as 99%. Besides, in series [1] (200 mg/kg, 2 surviving mice, after 45 days of treatment), the “side effects in surviving mice” value is reported as “no body-weight loss, lethargy or other obvious side effects”. For the same compound, the “tumor growth kinetics at the primary site of injection” value in series [1] (40 or 200 mg/kg i.p.) is recorded as “did not significantly interfere”.

In series [2] (setting [4]), `CO[C@H]1/C=C/CCCCCOC/C(C)=C\[C@@H](C)[C@@H]1OCC(=O)O` [CME, Carboxymethyl migraether] gave an AUC(0-inf) of 27900 ng·h/mL, a Cmax of 369 ng/mL and a bioavailability of 77.8%. Besides, in series [2] (both sexes, B6D2F1, plasma, ip), the AUC(0-t) amounted to 27800 ng·h/mL and the half-life is 2.4 h. In addition, in series [2] (setting [5]), the area under the curve AUC(0-inf) came out at 36000 ng·h/mL, the highest concentration (Cmax) was found to be 1540 ng/mL and the clearance is 9.25 mL/min/kg. For the same compound, in series [2] (both sexes, B6D2F1, plasma, iv), the AUC(0-t) was 35700 ng·h/mL and the half-life is 2.9 h. The same compound returned a CL in series [2] (ip, 20 mg/kg in 2% GDM-12) of 11.96 mL/min/kg. The solubility in series [3] was in the range of 200 to 300 µg/mL.

For orientation: AUC(0-inf) means total exposure, with the tail of the curve extrapolated. Low readings indicate low exposure, high ones high exposure. Broadly, the Cmax is the highest concentration seen after dosing. For orientation: bioavailability means dose-corrected exposure relative to a reference, in per cent. High values mean good availability, low ones poor availability. In general, clearance refers to the volume of plasma or blood freed of the substance per unit of time. The low end stands for a low capacity for elimination, the high end for a high capacity for elimination. As a reminder, the solubility is the dissolved amount per volume that the medium holds.
